# Source: patent US8598413B2, “AAD-1 event DAS-40278-9, related transgenic corn lines, event-specific identification thereof, and methods of weed control involving AAD-1” (Dow AgroSciecnes, LLC., priority 2009, dated 2013)
# What was measured:
# [1] = tested on: transgenic cotton containing the aad-1 gene; test: Field tolerance of aad-1 cotton to preemergence applications of 2,4-D (Example 13); assay type: in vivo
# Procedure: Transgenic cotton containing the aad-1 gene which encodes the aryloxyalkanoate dioxygenase (AAD-1) protein was evaluated for tolerance to preemergence applications of 2,4-D in the field. Trials consisted of three replications and were conducted at multiple locations in Mississippi, Georgia, Tennessee, and Arkansas. A randomized complete block design of a single row separated by a guard row, approximately 10 feet (20 feet for the Mississippi trial) in length was used. Seed was planted using 8 seed per foot, plants were then hand thinned to 3.5 plants/foot of row. Herbicide-treated plots were paired with untreated plots to provide accurate evaluation of emergence and early season growth. All plots received at least ½ inch of rain or irrigation water within 24 hours of application. Herbicide treatments of 560, 1120, 2240, and 4480 g ae/ha of 2,4-D amine (WEEDAR 64, Nufarm, Burr Ridge, Ill.) were applied shortly after planting but before crop emergence. Soil and precipitation information for these trials is contained in Table 32.
# [2] = tested on: conventional control hybrid; test: Field tolerance to preemergence applications of 2,4-D (Example 13, Table 31); assay type: in vivo, corn; conditions: PRE (0-2 days after planting), evaluated 16-21 days after application
# Procedure: (§1) Transgenic hybrid corn (pDAS1740-278) containing the aad-1 gene which encodes the aryloxyalkanoate dioxygenase (AAD-1) protein was evaluated for tolerance to preemergence applications of 2,4-D in the field. Trials were conducted at multiple locations in Mississippi, Indiana, and Minnesota using a randomized complete block design with three replications of two row plots, approximately 6 m in length, at each site. Herbicide-treated plots were paired with untreated plots to provide accurate evaluation of emergence and early season growth. Herbicide treatments of 1120, 2240, and 4480 g ae/ha of 2,4-D amine were applied shortly after planting but before crop emergence (0-2 days after planting). Soil and precipitation information for these trials is contained in Table 30.
# [3] = tested on: hybrid corn containing pDAS1740-278; test: as above; assay type: in vivo; conditions: PRE (0-2 days after planting), evaluated 16-21 days after application, pDAS1740-278 Hybrid
# Procedure: as §1
# [4] = tested on: hybrid corn containing the aad-1 gene; test: 2,4-D amine applied 7, 15 or 30 days preplanting, corn (Example 13); assay type: in vivo; conditions: 1120, 2240, 4480 g ae/ha at 7, 15 or 30 days preplanting
# Source text: Preemergence applications of 2,4-D amine are applied at rates of 1120, 2240, 4480 g ae/ha at 7 days, 15 days, or 30 days preplanting to hybrid corn containing the aad-1 gene and conventional control hybrids. The preemergence applications are applied using art recognized procedures to field plots which are located at geographically distinct locales. Herbicide-treated plots are paired with untreated plots to provide accurate evaluation of emergence and early season growth. Approximately 16-21 days after planting and 2,4-D applications at 7, 15 or 30 days preplanting; injury of the conventional control hybrids and hybrid corn containing aad-1 are measured.
# [5] = preemergence 560, 1120, 2240 and 4480 gm ae/ha
structure (smiles),measurement,setting,value
"O=C(O)COc1ccc(Cl)cc1Cl [2,4-D, 2,4-dichlorophenoxyacetic acid]",Chlorosis,"[1]; 560, 1120, 2240 and 4480 gm ae/ha, remainder of the season",not detected
same,Injury,[1]; 560 and 1120 gm ae/ha,not significantly different from the untreated control plot
same,growth inhibition,"[1]; 560 and 1120 gm ae/ha, 7 to 8, 11 to 14, 27 to 30 and 52 to 57 days after application",less than 2%
same,Chlorosis,"[1]; 560 and 1120 gm ae/ha, 7 to 8 days after application",not detected
same,stand reduction,"[1]; 560 gm ae/ha, 7 to 8 days after planting and preemergence application",3%
same,stand reduction,"[1]; 560 gm ae/ha, 11 to 14 days after planting and application",5%
same,stand reduction,"[1]; 1120 gm ae/ha, 7 to 8 days after planting and preemergence application",no reduction
same,stand reduction,"[1]; 1120 gm ae/ha, 11 to 14 days after planting and application",2%
same,"Chlorosis, visual rating","[1]; 2240 and 4480 gm ae/ha, 7-8 days after application",< 5%
same,growth inhibition,[1]; 2240 gm ae/ha,< 10%
same,stand reduction,"[1]; 2240 gm ae/ha, 7 to 8 days after planting and preemergence application",19%
same,stand reduction,"[1]; 2240 gm ae/ha, 11 to 14 days after planting and application",14%
same,growth inhibition,"[1]; 4480 gm ae/ha, 7 to 8 days after application",27%
same,stand reduction,"[1]; 4480 gm ae/ha, 7 to 8 days after planting and preemergence application",34%
same,growth inhibition,"[1]; 4480 gm ae/ha, 11 to 14 days after application",28%
same,stand reduction,"[1]; 4480 gm ae/ha, 11 to 14 days after planting and application",25%
same,growth inhibition,"[1]; 4480 gm ae/ha, 27 to 30 days after application",17%
same,growth inhibition,"[1]; 4480 gm ae/ha, 52 to 57 days after application",8.3%
same,"Differences in plant height, fruiting pattern, and yield",[1]; [5],not detected
same,epinasty,[1]; [5],did not cause epinasty
same,effect on plant stands,"[1]; preemergence 560, 1120 and 2240 gm ae/ha, compared to untreated plot",did not significantly affect plant stands
same,Percent Plant Injury,[2]; 1120 g ae/ha,12%
same,Percent Plant Injury,[2]; 2240 g ae/ha,16%
same,Percent Plant Injury,[2]; 4480 g ae/ha,31%
same,Percent Plant Injury,[3]; 1120 g ae/ha,3%
same,Percent Plant Injury,[3]; 2240 g ae/ha,4%
same,Percent Plant Injury,[3]; 4480 g ae/ha,9%
same,tolerance of preemergence treatments,[4],robust tolerance
